Results on two compounds are retold here after patent publication US20080280920A1, “Plasminogen Activator Inhibitor-1 Inhibitors” (priority 2005, published 2008).

In one assay the target is T1, wildtype human PAI-1 (Homo sapiens, UniProt P05121).
T1 construct: purchased Molecular Innovations Lot# HWT-804
The assay is described as follows: PAI-1/uPA assay (residual uPA activity, fluorescent substrate SpectroFluor). It is filed as biochemical. The settings on record: for Percent PAI-1 inhibition: at the concentration given, percent of activity of untreated PAI-1; for Conc. of compound required for PAI-1 inhibition: concentration giving the percent inhibition, 6 nM PAI-1, 8 nM uPA. The procedure:
Principle: The assay is based on using a fluorescent substrate (SpectroFluor) to measure residual uPA following inhibition of uPA by PAI-1. PAI-1 used in the assay is pre-treated in the presence of increasing concentrations of the lead compounds to screen for any inhibitory effects on PAI-1. Method: This assay was performed in 96 well microtiter plates. The concentrations of uPA (8 nM) and PAI-1 (6 nM) used in this assay were carefully optimized when using the fluorescent substrate, SpectroFluor™. Stock solutions (10 mM) of all lead compounds were prepared fresh in DMSO. […] 20 μl of 6 nM wildtype human PAI-1 (Molecular Innovations, Lot# HWT-804) was incubated for 15-20 minutes at room temperature in 96 well microtiter plates either with buffer, (50 mM HEPES, 150 mM NaCl, 0.05% Tween-20, 1% BSA, pH 6.6) or various concentrations (10 nM to 100 μM final concentration) of lead compounds in a total volume of 80 μl. A 20 μl aliquot of 8 nM uPA (HMW) solution in 0.05M Tris Buffered™ saline (TBS), pH 8.4 was added to each well and the mixture incubated for an additional 5 minutes at RT. The proteolytic reaction was initiated by addition of 50 μl of 0.1 mM SpectroFluor (Spectrozyme UK Fluorogenic substrate) to each well. The kinetics of the free chromophore, 7-amino-4-methylcoumarin (AMC) released in the course of peptide cleavage by the protease, uPA, was monitored for 30 minutes at 37° C. on a spectrofluorometric microplate reader with an excitation wavelength of 360 nm and emission wavelength of 440 nm. Kinetic data regarding the rate of substrate cleavage by uPA was acquired with Softmax PrO™ software. The difference between the residual uPA activity in the presence or absence of untreated PAI-1, at the molar ratio used, was considered as the “total” PAI-1 activity (100%). The inhibition of uPA by PAI-1 treated with lead compounds was expressed as a percentage of the initial activity of untreated PAI-1. Controls were performed during each experiment to ensure the nearly complete inhibition of uPA by untreated PAI-1 and also to ensure the absence of any direct effect of the lead compounds on uPA alone or on SpectroFluor.

In assay [1] the target is T2, PAI-1 interaction with vitronectin (Homo sapiens, UniProt P05121).
T2 construct: purchased Molecular Innovations
Nature of the assay: PAI-1 vitronectin interaction ELISA. It is filed as binding. Particulars: 15 nM PAI-1, vitronectin coated plates. On the procedure:
Principle: This ELISA assay is based on the interaction of wildtype human PAI-1 (aa 110-145) with the N-terminal somatomedin B-like (SMB) domain (aa 1-40) on vitronectin. PAI-1 was allowed to bind to vitronectin coated plates. The bound PAI-1 was detected with a HRP-conjugated polyclonal goat anti-human PAI-1 antibody using a standard ELISA method. In order to screen these compounds for their ability to disrupt PAI-1's interaction with vitronectin, PAI-1 was pre-incubated with various concentrations of the lead compounds before being allowed to bind to vitronectin.
Method: Human monomeric vitronectin (Vn; Molecular Innovations) was diluted to a concentration of 2.5 μg/ml in a buffer containing 100 mM Na2CO3, pH 9.6. […]
In a separate 96-well microtiter plate 20 μL per well of wildtype human PAI-1 (15 nM final concentration) was added with or without various concentrations of lead compounds (1 μM to 1000 μM final concentration) and incubated at room temperature for 15 minutes on a rotating shaker. […] Optical density was measured at 450 nm on a SoftMax PrO™ plate reader.
Where vitronectin inhibition was evident, IC50 values for a test compound were calculated by fitting a non-linear sigmoidal regression curve to log micromolar concentration versus optical density data.
On the technique in general: ELISA stands for enzyme-linked immunosorbent assay.

T1 sequence (P05121 24-402): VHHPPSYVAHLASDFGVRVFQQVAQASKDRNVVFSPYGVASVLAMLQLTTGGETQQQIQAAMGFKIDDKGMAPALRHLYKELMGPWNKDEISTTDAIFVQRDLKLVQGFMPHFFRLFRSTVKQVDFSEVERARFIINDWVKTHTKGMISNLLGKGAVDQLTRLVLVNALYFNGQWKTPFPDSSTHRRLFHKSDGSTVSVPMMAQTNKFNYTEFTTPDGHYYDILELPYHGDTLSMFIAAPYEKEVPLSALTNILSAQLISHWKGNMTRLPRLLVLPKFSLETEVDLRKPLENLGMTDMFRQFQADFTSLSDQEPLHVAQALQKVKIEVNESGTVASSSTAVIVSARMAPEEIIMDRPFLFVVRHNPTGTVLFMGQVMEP
T2 sequence (P05121 24-402): as above

What is called IC50 is the point on the concentration scale where inhibition reaches its midpoint. As to `COc1cc(CNCCCn2ccnc2)cc(CN2CCN(c3ncccn3)CC2)c1O` [Compound Q012110, 2-Methoxy-4-({3-[(1H-imidazol-1-yl)propyl]amino}methyl)-6-[(4-pyrimidin-2-ylpiperazin-1-yl)methyl]phenol], at wildtype human PAI-1, the “Percent PAI-1 inhibition” value was found to be 57 and the “Conc. of compound required for PAI-1 inhibition” value turned out to be 5 µM. The same compound returned an IC50 in assay [1] of 340 µM.

In the case of `CCOC(=O)[C@H](CCCNC(=N)NS(=O)(=O)c1c(C)cc(OC)c(C)c1C)NC(=O)N[C@@H](Cc1csc2ccccc12)C(=O)OCC` [Compound Q012059, (2S)-2-[({[(1S)-1-carboxy-2-(thianaphthen-3-yl)ethyl]amino}carbonyl)amino]-5-({imino[(4-methoxy-2,3,6-trimethylphenylsulfonyl)amino]methyl}amino)pentanoic acid diethyl ester], at wildtype human PAI-1, the “Percent PAI-1 inhibition” value was found to be 23 and the “Conc. of compound required for PAI-1 inhibition” value was determined as 10 µM. For the same compound, the half-maximal inhibitory concentration (IC50) in assay [1] came out at 910 µM.
